In general, inhibition refers to the change of the read-out against control, counted positive when it falls. As usually defined, the Cmax is the maximum level reached in the sampled fluid or tissue. Usually Tmax stands for the time from dosing to the highest level. Broadly, the half-life is how long it takes for the measured level to halve. Low readings indicate rapid decline, high ones slow decline.

These results are taken from US20240336562A1, “COMPOUND SERVING AS NLRP3 INHIBITOR” (Hangzhou Innogate Pharma Co., Ltd., priority 2021, published 2024).

The target in one data set is NLRP3 (Homo sapiens (Human), UniProt Q96P20). Nature of the data set: Inhibitory activity of NLRP3: IL1β induction in THP1 cells (PMA, LPS, nigericin) and IL1β ELISA detection. The data set is classed as cell-based. To be noted: THP-1, 300 nM compound, LPS 500 ng/mL + nigericin 10 μg/mL. As for the experimental part:
Study of the Compound's Inhibitory Activity of NLRP3 Step 1: IL1 β Induction 60 μL/well polylysine was added to 96-well cell culture plate and incubated at 37° C. for 30 min. Discard the solution in the plate and wash the cell culture plate twice with PBS. THP1 (50000 cells/well/95 μL) was planted in cell culture plates, 5 μL of PMA was added to each well (the final concentration was 50 ng/mL), and cultured overnight in a thermostat incubator at 37° C. The supernatant was gently sucked out, the cell culture plate was washed with PBS twice, and 80 μL cell culture medium without FBS, followed by 5 μL/well LPS (final concentration 500 ng/mL) was added to each well. The plate was cultured in a thermostat incubator at 37° C. for 3 hours. […] Then 10 μL/well nigericin (final concentration 10 μg/mL) was added to the cell plate and cultured in a thermostat incubator at 37° C. for 0.5 hours. The cell supernatant was collected into a new cell plate and frozen at -80° C. for future use. Step 2: IL1 β detection IL1β antibody was diluted 60 times with coating buffer, and 100 μL of diluted antibody was added to each well of ELISA plate, and incubated at 4° C. overnight. Discard the liquid in the ELISA plate and wash it 4 times with eluent. Add 300 μL/well reagent diluent and incubate the ELISA plate at room temperature for 1.5 hours. Wash the plate with eluent for four times. […] Wash the plate with eluent for four times. Each well was added with 100 μL detection antibody and incubated at 37° C. for 2 h. Wash the plate with eluent for four times. Add 100 μL of HRP labeled secondary antibody to each well. Incubate at 37° C. for 1 hour. Wash the plate with eluent for four times. Add 100 μL of A+B substrate per well. Incubate at 37° C. for 30 minutes. Add 100 μL STOP solution per well. Gently shake the plate for a few seconds. Read the absorption value at 450 nm on the EnVision multifunction reader and calculate the Inhibitory rate according to the following formula: Inhibition %=([…]). […] The log value of concentration was taken as the X-axis and the percentage inhibitory rate as the Y-axis. […]
For orientation: An ELISA detects its analyte on a solid surface through an enzyme-linked reagent.

Data set [1] can be described thus: Pharmacokinetic study in rats after intragastrical administration. It counts as in vivo. To be noted: rat, male SD rats, oral 3 mg/kg, plasma. As for the experimental part:
Pharmacokinetic Study in Rats
Instruments: XEVO TQ-S LC/MS instrument produced by Waters. All measurement data is collected and processed by Masslynx V4.1 software, and the data is calculated and processed by Microsoft Excel. Using WinNonLin 8.0 software, the statistical moment method was used to calculate the pharmacokinetic parameters. Mainly include kinetic parameters Tmax, T1/2, Cmax, AUClast etc. Column: ACQUITY UPLC BEH C18 (2.1 mm×50 mm, 1.7 μm); column temperature 40° C.; mobile phase A is water (0.1% formic acid), mobile phase B is acetonitrile, flow rate is 0.350 ml/min, gradient elution is adopted, the elution gradient is 0.50 min: 10% B; 1.50 min: 90% B; 2.50 min: 90% B; 2.51 min: 10% B; 3.50 min: stop. Injection volume: 1 μL.
Animals: 3 male SD rats with a weight range of 200-220 g. After purchase, they will be kept in the laboratory of the Experimental Animal Center for 2 days and then used. They will be fasted for 12 hours predose and 4 hours after dosing. Drinking water is free during the test. After the rats were gavage, blood samples were taken according to the established time point.
Solvent: 0.4% ethanol+0.4% Tween80+99.2% (0.5% methylcellulose M450). Preparation of the solution for intragastrical administration: accurately weigh the compound, add it to the solvent, and use ultrasound at room temperature for 5 minutes to completely dissolve the drug, and prepare a 0.3 mg/mL medicinal solution.
Pharmaceutical samples: Generally, multiple samples with similar structures (with a molecular weight difference of more than 2 units) are taken, accurately weighed, and administered together (cassette PK). In this way, multiple compounds can be screened at the same time and their oral absorption rates can be compared. A single administration was also used to study the pharmacokinetics of the drug sample in rats.
After intragastrical administration, blood was taken from the orbit at 0.25, 0.5, 1, 2, 4, 8, 10 and 24 hours. Then take 50 μL of the plasma sample, add 200 μL of acetonitrile (including internal standard control verapamil 2 ng/mL), vortex for 3 min and centrifuge at 20000 ref, 4° C. for 10 min. The supernatant plasma was used for LC-MS/MS analysis.
Accurately weigh the compounds to prepare different concentrations, perform quantitative analysis on mass spectrometry to establish a standard curve, and then test the concentration of the above-mentioned compound in the plasma to obtain the compound concentration at different time points. All measurement data are collected and processed by relevant software, and the statistical moment method is used to calculate the pharmacokinetic parameters (mainly including kinetic parameters Tmax, T1/2, Cmax, AUClast etc).

Sequence of NLRP3 (Q96P20 whole entry): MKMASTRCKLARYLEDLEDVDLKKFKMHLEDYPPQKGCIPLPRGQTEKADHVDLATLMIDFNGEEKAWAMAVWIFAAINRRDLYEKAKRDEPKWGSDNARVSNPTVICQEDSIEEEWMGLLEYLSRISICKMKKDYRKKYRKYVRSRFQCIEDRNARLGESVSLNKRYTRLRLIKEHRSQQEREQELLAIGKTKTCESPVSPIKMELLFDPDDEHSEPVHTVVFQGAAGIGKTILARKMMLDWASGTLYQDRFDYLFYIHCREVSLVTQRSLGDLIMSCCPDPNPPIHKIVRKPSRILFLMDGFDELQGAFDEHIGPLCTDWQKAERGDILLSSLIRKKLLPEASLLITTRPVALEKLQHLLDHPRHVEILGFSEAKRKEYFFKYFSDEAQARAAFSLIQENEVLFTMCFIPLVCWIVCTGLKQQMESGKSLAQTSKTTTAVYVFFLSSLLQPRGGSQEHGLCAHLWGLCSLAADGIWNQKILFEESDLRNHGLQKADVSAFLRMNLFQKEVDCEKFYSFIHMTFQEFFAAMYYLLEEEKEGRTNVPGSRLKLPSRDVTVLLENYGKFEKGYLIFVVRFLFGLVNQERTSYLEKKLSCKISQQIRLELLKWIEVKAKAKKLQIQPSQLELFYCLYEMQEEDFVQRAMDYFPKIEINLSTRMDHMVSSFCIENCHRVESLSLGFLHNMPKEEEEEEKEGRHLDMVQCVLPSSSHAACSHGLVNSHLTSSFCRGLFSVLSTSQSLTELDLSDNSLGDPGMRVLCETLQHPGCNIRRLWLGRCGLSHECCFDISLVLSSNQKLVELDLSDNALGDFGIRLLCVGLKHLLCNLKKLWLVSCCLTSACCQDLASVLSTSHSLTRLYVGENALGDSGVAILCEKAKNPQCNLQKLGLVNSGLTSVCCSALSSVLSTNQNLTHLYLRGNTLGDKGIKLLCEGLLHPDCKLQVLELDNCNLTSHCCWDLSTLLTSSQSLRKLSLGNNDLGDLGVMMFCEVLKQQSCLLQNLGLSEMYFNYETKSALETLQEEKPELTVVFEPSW

For the compound `Cc1cc2c(c(NC(=O)NS(=O)(=O)C3CC3)c1-c1ccnc(OCC3=CCCN(C)C3)c1)CCC2` [Compound 6], the inhibition at 0.3 µM on NLRP3 is over 50%.
Still for that read-out and setting: the figure for `Cc1cc2c(c(NC(=O)NS(=O)(=O)N(C)C)c1-c1ccnc(OCC3=CCCN(C)C3)c1)CCC2` [Compound 7] is over 50%; for `Cc1cc2c(c(NC(=O)NS(C)(=O)=O)c1-c1ccnc(OCC3=CCN(C)CC3)c1)CCC2` [Compound 1] it is over 50%.
Regarding `COc1cc(-c2c(C)cc3c(c2NC(=O)NS(=O)(=O)c2ccn(C4CC(=C(F)F)C4)n2)CCC3)ccn1` (stereo not shown) [Compound 22], in data set [1], the Cmax came out at 1530 ng/mL, the time to peak (Tmax) was found to be 1 h and the half-life was 5.6 h. Also, in data set [1] (read-out: AUC(0-24)), the AUC(0-t) was 6710 ng·h/mL.
